# Values quoted from earlier work as cited in patent EP1556366B1, “PROCESS FOR THE E[…] OLEFINS” (Degussa AG, priority 2002, dated 2004).
# Read-outs that look alike come from different tables or passages of the source.
Structure (SMILES),pkB,"pkB (Table 2, nitrogen bases)"
"CN(C)C [Me3N, trimethyl amine]",4.26,4.26
"CN [MeNH2, methyl amine]",3.36,3.36
